US10508104B2, “6-hydroxy-5-(phenyl/heteroarylsulfonyl)pyrimidin-4(1H)-one as APJ agonists” (Bristol-Myers Squibb Company, priority 2016, dated 2019)
pEC50: −log10 of the molar value. Like-named read-outs stand apart in the source and are kept apart here.

Biological target: human APJ receptor (Homo sapiens (Human), UniProt P35414)
Test: Intracellular cAMP accumulation assay (APJ hcAMP, HTRF)
Assay type: cell-based
Conditions: read-out: Human APJ cAMP EC50 Potency range
How it was run: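 HEK293 cells stably expressing human APJ, 5,000 per well, incubated 30 min at rt with compound, […] and 2 μM forskolin. cAMP measured by HTRF against a cAMP standard curve as inhibition of forskolin-driven production. EC50 from variable-slope sigmoidal fit.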

[1] = HEK293 cells stably expressing human APJ receptor, inhibition of forskolin-mediated cAMP production
[2] = human APJ, intracellular cAMP accumulation

human APJ receptor, sequence (P35414 whole entry): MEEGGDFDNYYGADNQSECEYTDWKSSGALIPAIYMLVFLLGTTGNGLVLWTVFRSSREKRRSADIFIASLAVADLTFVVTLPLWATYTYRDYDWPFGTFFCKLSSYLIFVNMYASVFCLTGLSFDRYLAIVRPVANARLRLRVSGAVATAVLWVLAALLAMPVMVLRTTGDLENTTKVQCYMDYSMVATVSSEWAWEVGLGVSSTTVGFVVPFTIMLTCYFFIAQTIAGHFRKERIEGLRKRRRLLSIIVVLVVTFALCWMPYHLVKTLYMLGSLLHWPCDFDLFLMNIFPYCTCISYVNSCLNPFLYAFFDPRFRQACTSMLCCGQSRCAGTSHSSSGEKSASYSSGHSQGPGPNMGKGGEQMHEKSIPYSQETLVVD

CCCCc1nc(=O)c(S(=O)(=O)c2ccc(C(=O)NCC(F)(F)F)cc2)c(O)n1-c1c(OC)cccc1OC [Example 90, 4-((2-Butyl-1-(2,6-dimethoxyphenyl)-6-hydroxy-4-oxo-1,4-dihydropyrimidin-5-yl)sulfonyl)-N-(2,2,2-trifluoroethyl)benzamide]
pEC50 [1]: 8.00 to 11.00

CCCCc1nc(=O)c(S(=O)(=O)c2ccc(C(=O)NC3CC3)cc2)c(O)n1-c1c(OC)cccc1OC [Example 91, 4-{[2-butyl-1-(2,6-dimethoxyphenyl)-6-hydroxy-4-oxo-1,4-dihydropyrimidin-5-yl]suffonyl}-N-cyclopropylbenzamide]
pEC50 [2]: 8.00 to 11.00

CCCCc1nc(=O)c(S(=O)(=O)c2ccc(C(=O)NC)cc2)c(O)n1-c1c(OC)cccc1OC [Example 92, 4-{[2-butyl-1-(2,6-dimethoxyphenyl)-6-hydroxy-4-oxo-1,4-dihydropyrimidin-5-yl]sulfonyl}-N-methylbenzamide]
pEC50 [2]: 8.00 to 11.00

CCCCc1nc(=O)c(S(=O)(=O)c2ccc(C(=O)N3CC(F)(F)C3)cc2)c(O)n1-c1c(OC)cccc1OC [Example 93, 2-butyl-5-[4-(3,3-difluoroazetidine-1-carbonyl)benzenesulfo-nyl]-1-(2,6-dimethoxyphenyl)-6-hydroxy-1,4-dihydropyrimidin-4-one]
pEC50 [2]: 8.00 to 11.00

CCCCc1nc(=O)c(S(=O)(=O)c2ccc(C(=O)N3CC(C)(O)C3)cc2)c(O)n1-c1c(OC)cccc1OC [Example 94, 2-butyl-1-(2,6-dimethoxyphenyl)-6-hydroxy-5-[4-(3-hydroxy-3-methylazetidine-1-carbonyl)benzenesulfo-nyl]-1,4-dihydropyrimidin-4-one]
pEC50 [2]: 8.00 to 11.00

CCCCc1nc(=O)c(S(=O)(=O)c2ccc(C(=O)N3CCC(F)(F)C3)cc2)c(O)n1-c1c(OC)cccc1OC [Example 95, 2-butyl-5-[4-(3,3-difluoropyrrolidine-1-carbonyl)benzene-sulfonyl]-1-(2,6-dimethoxyphenyl)-6-hydroxy-1,4-dihydropyrimidin-4-one]
pEC50 [2]: 8.00 to 11.00

CCCCc1nc(=O)c(S(=O)(=O)c2ccc(C(=O)N3CCOCC3)cc2)c(O)n1-c1c(OC)cccc1OC [Example 96, 2-butyl-1-(2,6-dimethoxyphenyl)-6-hydroxy-5-[4-(morpholine-4-carbonyl)benzenesulfo-nyl]-1,4-dihydropyrimidin-4-one]
pEC50 [2]: 8.00 to 11.00

CCCCc1nc(=O)c(S(=O)(=O)c2ccc(C(=O)Nc3ccc(F)nc3)cc2)c(O)n1-c1c(OC)cccc1OC [Example 97, 4-{[2-butyl-1-(2,6-dimethoxyphenyl)-6-hydroxy-4-oxo-1,4-dihydropyrimidin-5-yl]sulfonyl}-N-(6-fluoropyridin-3-yl)benzamide]
pEC50 [2]: 7.00 to 8.00

CCCCc1nc(=O)c(S(=O)(=O)c2ccc(Br)cn2)c(O)n1-c1c(OC)cccc1OC [Example 98, 5-((5-Bromopyridin-2-yl)sulfonyl)-2-butyl-1-(2,6-dimethoxyphenyl)-6-hydroxypyrimidin-4(1H)-one]
pEC50 [1]: 8.00 to 11.00

COc1cccc(OC)c1-n1c(CCC(C)C)nc(=O)c(S(=O)(=O)c2ccccn2)c1O [Example 99, 1-(2,6-dimethoxyphenyl)-6-hydroxy-2-(3-methylbutyl)-5-(pyridine-2-sulfonyl)-1,4-dihydropyrimidin-4-one]
pEC50 [2]: 8.00 to 11.00

CCCCc1nc(=O)c(S(=O)(=O)c2cc(C)oc2C)c(O)n1-c1c(OC)cccc1OC [Example 100, 2-butyl-1-(2,6-dimethoxyphenyl)-5-[(2,5-dimethylfuran-3-yl)sulfonyl]-6-hydroxy-1,4-dihydropyrimidin-4-one]
pEC50 [2]: 8.00 to 11.00

CCCCc1nc(=O)c(S(=O)(=O)c2ccc(C3CC3)cn2)c(O)n1-c1c(OC)cccc1OC [Example 101, 2-butyl-5-[(5-cyclopropylpyridin-2-yl)sulfonyl]-1-(2,6-dimethoxyphenyl)-6-hydroxy-1,4-dihydropyrimidin-4-one]
pEC50 [2]: 8.00 to 11.00

CCCCc1nc(=O)c(S(=O)(=O)c2ccc(C3CC3)cn2)c(O)n1-c1c(CC)cccc1CC [Example 102, 2-butyl-5-[(5-cyclopropylpyridin-2-yl)sulfonyl]-1-(2,6-diethylphenyl)-6-hydroxy-1,4-dihydropyrimidin-4-one]
pEC50 [2]: 8.00 to 11.00

CCCCc1nc(=O)c(S(=O)(=O)c2ccc(-c3ccc(F)cc3)cn2)c(O)n1-c1c(OC)cccc1OC [Example 103, 2-butyl-1-(2,6-dimethoxyphenyl)-5-{[5-(4-fluorophenyl)pyridin-2-yl]sulfonyl}-6-hydroxy-1,4-dihydropyrimidin-4-one]
pEC50 [2]: 8.00 to 11.00

CCCCc1nc(=O)c(S(=O)(=O)c2ccc(C)cn2)c(O)n1-c1c(CC)cccc1CC [Example 104, 2-butyl-1-(2,6-diethylphenyl)-6-hydroxy-5-[(5-methylpyridin-2-yl)sulfonyl]-1,4-dihydropyrimidin-4-one]
pEC50 [2]: 8.00 to 11.00

CCCCc1nc(=O)c(S(=O)(=O)C2CCN(C(=O)OC(C)(C)C)CC2)c(O)n1-c1c(OC)cccc1OC [Example 105, tert-Butyl 4-((2-butyl-1-(2,6-dimethoxyphenyl)-6-hydroxy-4-oxo-1,4-dihydropyrimidin-5-yl)sulfonyl)piperidine-1-carboxylate]
pEC50 [1]: 8.00 to 11.00

CCCCc1nc(=O)c(S(=O)(=O)C2CCNCC2)c(O)n1-c1c(OC)cccc1OC [Example 106, 2-Butyl-1-(2,6-dimethoxyphenyl)-6-hydroxy-5-(piperidin-4-ylsulfonyl)pyrimidin-4(1H)-one]
pEC50 [1]: 7.00 to 8.00

CCCCc1nc(=O)c(S(=O)(=O)C2CCN(C)CC2)c(O)n1-c1c(OC)cccc1OC [Example 107, 2-Butyl-1-(2,6-dimethoxyphenyl)-6-hydroxy-5-((1-methylpiperidin-4-yl)sulfonyl)pyrimidin-4(1H)-one]
pEC50 [1]: 8.00 to 11.00

CCCCc1nc(=O)c(S(=O)(=O)C2CCN(CC)CC2)c(O)n1-c1c(OC)cccc1OC [Example 108, 2-butyl-1-(2,6-dimethoxyphenyl)-5-[(1-ethylpiperidin-4-yl)sulfonyl]-6-hydroxy-1,4-dihydropyrimidin-4-one]
pEC50 [2]: 8.00 to 11.00

CCCCc1nc(=O)c(S(=O)(=O)C2CCN(Cc3cccc(F)c3F)CC2)c(O)n1-c1c(CC)cccc1CC [Example 109, 2-butyl-1-(2,6-diethylphenyl)-5-({1-[(2,3-difluorophenyl)methyl]piperidin-4-yl}sulfonyl)-6-hydroxy-1,4-dihydropyrimidin-4-one]
pEC50 [2]: 8.00 to 11.00

CCCCc1nc(=O)c(S(=O)(=O)C2CCN(C(=O)c3nnc(C)o3)CC2)c(O)n1-c1c(OC)cccc1OC [Example 110, 2-Butyl-1-(2,6-dimethoxyphenyl)-6-hydroxy-5-((1-(5-methyl-1,3,4-oxadiazole-2-carbonyl)piperidin-4-yl)sulfonyl)pyrimidin-4(1H)-one]
pEC50 [1]: 8.00 to 11.00

CCCCc1nc(=O)c(S(=O)(=O)C2CCN(C(=O)c3ccccc3)CC2)c(O)n1-c1c(OC)cccc1OC [Example 111, 5-[(1-benzoylpiperidin-4-yl)sulfonyl]-2-butyl-1-(2,6-dimethoxyphenyl)-6-hydroxy-1,4-dihydropyrimidin-4-one]
pEC50 [2]: 8.00 to 11.00

CCCCc1nc(=O)c(S(=O)(=O)C2CCN(C(=O)c3ccc(Cl)cc3)CC2)c(O)n1-c1c(OC)cccc1OC [Example 112, 2-butyl-5-{[1-(4-chlorobenzoyl)piperidin-4-yl]sulfonyl}-1-(2,6-dimethoxyphenyl)-6-hydroxy-1,4-dihydropyrimidin-4-one]
pEC50 [2]: 8.00 to 11.00

CCCCc1nc(=O)c(S(=O)(=O)C2CCN(C(=O)C3CC3)CC2)c(O)n1-c1c(OC)cccc1OC [Example 113, 2-butyl-5-[(1-cyclopropanecarbonyl-piperidin-4-yl)sulfonyl]-1-(2,6-dimethoxyphenyl)-6-hydroxy-1,4-dihydropyrimidin-4-one]
pEC50 [2]: 8.00 to 11.00

CCCCc1nc(=O)c(S(=O)(=O)C2CCN(C(=O)CC(F)(F)F)CC2)c(O)n1-c1c(OC)cccc1OC [Example 114, 2-butyl-1-(2,6-dimethoxyphenyl)-6-hydroxy-5-{[1-(3,3,3-trifluoropropanoyl)piper-idin-4-yl]sulfonyl}-1,4-dihydropyrimidin-4-one]
pEC50 [2]: 8.00 to 11.00

CCCCc1nc(=O)c(S(=O)(=O)c2ccc(C(=O)NN)cc2)c(O)n1-c1c(OC)cccc1OC [Example 116, 4-((2-Butyl-1-(2,6-dimethoxyphenyl)-6-hydroxy-4-oxo-1,4-dihydropyrimidin-5-yl)sulfonyl)benzohydrazide]
pEC50 [1]: 8.00 to 11.00

CCCCc1nc(=O)c(S(=O)(=O)c2ccc(-c3nnc(C4CC4)o3)cc2)c(O)n1-c1c(OC)cccc1OC [Example 117, 2-butyl-5-[4-(5-cyclopropyl-1,3,4-oxadiazol-2-yl)benzenesulfonyl]-1-(2,6-dimethoxyphenyl)-6-hydroxy-1,4-dihydropyrimidin-4-one]
pEC50 [2]: 8.00 to 11.00

CCCCc1nc(=O)c(S(=O)(=O)c2ccc(Br)cc2)c(O)n1[C@@H](C)c1ccccc1 [Example 118, (S)-5-((4-Bromophenyl)sulfonyl)-2-butyl-6-hydroxy-1-(1-phenylethyl)pyrimidin-4(1H)-one]
pEC50 [1]: 6.52 to 7.00

CCCCc1nc(=O)c(S(=O)(=O)c2ccc(Br)cc2)c(O)n1[C@@H](COC)c1ccccc1 [Example 119, 5-(4-bromobenzenesulfonyl)-2-butyl-6-hydroxy-1-[(1R)-2-methoxy-1-phenylethyl]-1,4-dihydropyrimidin-4-one]
pEC50 [2]: 7.00 to 8.00

CCCCc1nc(=O)c(S(=O)(=O)c2ccc(Br)cc2)c(O)n1[C@H]1CCc2ccccc21 [Example 120, 5-(4-bromobenzenesulfonyl)-2-butyl-1-[(1S)-2,3-dihydro-1H-inden-1-yl]-6-hydroxy-1,4-dihydropyrimidin-4-one]
pEC50 [2]: 7.00 to 8.00

CCCCc1nc(=O)c(S(=O)(=O)c2ccc(Br)cc2)c(O)n1[C@H](C)c1cccc(C#N)c1 [Example 121, 3-[(1R)-1-[5-(4-bromobenzenesulfonyl)-2-butyl-6-hydroxy-4-oxo-1,4-dihydropyrimidin-1-yl]ethyl]benzonitrile]
pEC50 [2]: 6.52 to 7.00
